Test results taken from ChEMBL document CHEMBL1134832, “Conformational analysis of tandospirone in aqueous solution: lead evolution of potent dopamine D4 receptor ligands” (Bioorg Med Chem Lett, 2001).

Columns and labels:
[1] = biological target: T1, 5-hydroxytryptamine receptor 1A (Homo sapiens, UniProt P08908); assay: Binding affinity to 5-hydroxytryptamine 1A receptor was determined
T1 sequence (P08908 whole entry): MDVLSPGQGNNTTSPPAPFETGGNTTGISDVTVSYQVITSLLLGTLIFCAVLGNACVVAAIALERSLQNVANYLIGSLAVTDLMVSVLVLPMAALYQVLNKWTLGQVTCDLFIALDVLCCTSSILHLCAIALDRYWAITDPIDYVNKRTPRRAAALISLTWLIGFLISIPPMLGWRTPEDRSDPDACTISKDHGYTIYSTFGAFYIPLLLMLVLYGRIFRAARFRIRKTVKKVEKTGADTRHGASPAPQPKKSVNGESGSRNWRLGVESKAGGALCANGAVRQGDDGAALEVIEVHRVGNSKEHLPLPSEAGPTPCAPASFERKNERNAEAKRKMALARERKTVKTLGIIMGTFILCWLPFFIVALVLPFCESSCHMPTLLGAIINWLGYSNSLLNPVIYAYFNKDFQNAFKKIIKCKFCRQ

D(2) dopamine receptor = D(2) dopamine receptor (Homo sapiens, UniProt P14416); assay: Binding affinity to Dopamine receptor D2 was determined
Chain of D(2) dopamine receptor (P14416 whole entry): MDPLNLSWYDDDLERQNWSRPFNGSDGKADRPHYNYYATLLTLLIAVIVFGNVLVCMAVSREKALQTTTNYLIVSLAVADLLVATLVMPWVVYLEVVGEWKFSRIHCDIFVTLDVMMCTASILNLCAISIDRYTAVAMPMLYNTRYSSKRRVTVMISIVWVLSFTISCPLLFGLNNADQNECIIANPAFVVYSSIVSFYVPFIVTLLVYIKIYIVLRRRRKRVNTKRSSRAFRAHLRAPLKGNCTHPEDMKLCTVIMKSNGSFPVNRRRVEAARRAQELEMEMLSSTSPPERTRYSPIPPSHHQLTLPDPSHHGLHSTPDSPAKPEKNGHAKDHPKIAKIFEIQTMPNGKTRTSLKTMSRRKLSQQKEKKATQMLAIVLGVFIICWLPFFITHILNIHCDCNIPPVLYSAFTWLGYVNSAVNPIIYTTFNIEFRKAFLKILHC

D(4) dopamine receptor = biological target: T2, D(4) dopamine receptor (Homo sapiens, UniProt P21917); assay: Binding affinity to Dopamine receptor D4 was determined
T2 sequence (P21917 whole entry): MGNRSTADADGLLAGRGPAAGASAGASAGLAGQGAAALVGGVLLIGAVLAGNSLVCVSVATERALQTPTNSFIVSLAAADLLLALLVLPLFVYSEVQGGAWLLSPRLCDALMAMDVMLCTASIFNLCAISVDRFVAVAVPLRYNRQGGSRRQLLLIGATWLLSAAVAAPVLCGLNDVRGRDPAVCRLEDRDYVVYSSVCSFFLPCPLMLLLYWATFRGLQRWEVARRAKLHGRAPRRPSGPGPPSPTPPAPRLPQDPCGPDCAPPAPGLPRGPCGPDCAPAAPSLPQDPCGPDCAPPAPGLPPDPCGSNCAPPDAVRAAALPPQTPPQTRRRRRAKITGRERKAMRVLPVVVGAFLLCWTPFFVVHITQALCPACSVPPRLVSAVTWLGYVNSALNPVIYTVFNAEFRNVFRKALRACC

| SMILES | Ki [1] [nM] | Ki (D(2) dopamine receptor) [nM] | Ki (D(4) dopamine receptor) [nM] |
| --- | --- | --- | --- |
| CNc1nc(Cl)c(SC)c(N2CCN(C)CC2)n1 [MEZILAMINE] | 430 | 5.4 | > 10000 |
| Cc1nc(Cl)c(Sc2ccc(Cl)cc2)c(N2CCN(C)CC2)n1 | 1500 | 62 | 260 |
| CN1CCN(c2nc3ccccc3c(Cl)c2Sc2ccccc2)CC1 | 2000 | 31 | 92 |

More lines, in order of falling Ki [1], values ahead:

| Ki [1] [nM] | Ki (D(2) dopamine receptor) [nM] | Ki (D(4) dopamine receptor) [nM] | SMILES |
| --- | --- | --- | --- |
| 460 | 188 | 250 | CNc1nc(Cl)c(Sc2ccccc2)c(N2CCN(C)CC2)n1 |
| 160 | 62 | 2.3 | Cc1nc(Cl)c(Sc2ccc(Cl)cc2)c(NC2CCN(Cc3ccccc3)CC2)n1 |
| 32 | 460 | 7.2 | O=C1[C@@H]2[C@H]3CC[C@H](C3)[C@@H]2C(=O)N1CCCCN1CCN(c2ncccn2)CC1 [TANDOSPIRONE] |
